Results taken from PubChem BioAssay (NCI).
“And” between values parts separate entries of the source, which are not always exact repeats. Identical values can stand only once.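 These data come from cells grown in 96-well plates and exposed to compound for 48 hours at five concentrations. Abbreviation: GI50, concentration required for 50% inhibition of growth. TGI: total growth inhibition.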

Assays:
Test in all cases: inhibition of tumour cell growth, NCI panel, 48 h
MDA-MB-435 = tested on: MDA-MB-435
A549 NSCLC = tested on: A549 NSCLC
OVCAR-5 ovarian = tested on: OVCAR-5 ovarian
SK-MEL-28 melanoma = tested on: SK-MEL-28 melanoma
RPMI-8226 leukemia = tested on: RPMI-8226 leukemia
HCT-116 colon = tested on: HCT-116 colon
HCC-2998 colon = tested on: HCC-2998 colon
U251 CNS = tested on: U251 CNS
MALME-3M melanoma = tested on: MALME-3M melanoma
NCI/ADR-RES ovarian = tested on: NCI/ADR-RES ovarian

Structure (SMILES)	GI50 (MDA-MB-435)	TGI (MDA-MB-435)	GI50 (A549 NSCLC)	TGI (A549 NSCLC)	GI50 (OVCAR-5 ovarian)	TGI (OVCAR-5 ovarian)	GI50 (SK-MEL-28 melanoma)	TGI (SK-MEL-28 melanoma)	GI50 (RPMI-8226 leukemia)	TGI (RPMI-8226 leukemia)	GI50 (HCT-116 colon)	TGI (HCT-116 colon)	GI50 (HCC-2998 colon)	TGI (HCC-2998 colon)	GI50 (U251 CNS)	TGI (U251 CNS)	GI50 (MALME-3M melanoma)	TGI (MALME-3M melanoma)	GI50 (NCI/ADR-RES ovarian)	TGI (NCI/ADR-RES ovarian)
OCC1OC(n2cnc3c(N/N=C\c4ccccn4)ncnc32)C(O)C1O (stereo not drawn)	0.43 µM	> 100 µM	0.399 µM	> 100 µM	0.467 µM	> 100 µM	0.995 µM	> 100 µM	0.736 µM	> 25.3 µM	0.11 µM	10.8 µM	0.277 µM	> 100 µM	0.4 µM	> 100 µM	0.404 µM	6.19 µM	0.185 µM	11.7 µM
O=C1OCC2=C1C(c1ccccc1)c1cc3c(cc1N2)OCO3 (stereo not drawn)	–	0.026 µM	0.0375 µM	> 56.4 µM	0.0829 µM	> 100 µM	0.0428 µM	> 100 µM	0.0571 µM	–	0.0352 µM	> 100 µM	0.0333 µM	> 38.7 µM	0.0409 µM	> 50.1 µM	14.1 µM	> 100 µM	0.0204 µM	1.62 µM
COC1C=COC2(C)Oc3c(C)c(O)c4c(c3C2=O)/C(=N/C2CCC(O)OC2C)C=C(NC(=O)/C(C)=C\C(=O)C2CC2C(O)C(C)C(O)C(C)C(OC(C)=O)C1C)C4=O (stereo not drawn)	–	3.64 µM	–	11.4 µM	–	8.45 µM	–	4.32 µM	–	5.74 µM	–	3.56 µM	–	6.88 µM	–	8.3 µM	–	3.36 µM	–	50.4 µM
COc1ccc2cc1Oc1ccc(cc1)C[C@H]1c3c(cc4c(c3Oc3cc5c(cc3OC)CCN(C)[C@@H]5C2)OCO4)CCN1C	1.03 µM	6.12 µM	2.03 µM	7.89 µM	6.65 µM	13.5 µM	0.911 µM	1.86 µM	1.56 µM	8.7 µM	0.726 µM	6.8 µM	1.65 µM	8.26 µM	0.832 µM	5.52 µM	1.18 µM	3.01 µM	6.02 µM	15.9 µM
O=C1OC(=O)C(=C\c2ccc3c(c2)OCO3)/C1=C/c1ccc2c(c1)OCO2	–	> 100 µM	–	> 100 µM	–	> 100 µM	–	> 100 µM	–	97.2 µM	–	> 100 µM	–	> 100 µM	–	> 100 µM	–	> 100 µM	–	> 100 µM
CC(C)NCCCn1c(Sc2cc3c(cc2I)OCO3)nc2c(N)ncnc21	0.0919 µM	42 µM	0.0872 µM	> 86.6 µM	3.02 µM	> 100 µM	0.418 µM	44.5 µM	1.53 µM	> 47.7 µM	0.0628 µM	> 100 µM	0.28 µM	11.6 µM	0.128 µM	> 100 µM	0.124 µM	2.12 µM	3.66 µM	> 100 µM
N#Cc1c(N2CCOCC2)nc(=S)[nH]c1-c1ccco1	15.9 µM	> 100 µM	14.9 µM	> 100 µM	4.18 µM	88.3 µM	8.45 µM	> 100 µM	1.58 µM	16.4 µM	15.6 µM	> 100 µM	25.5 µM	> 100 µM	20.2 µM	> 100 µM	2.18 µM	8.18 µM	15.6 µM	> 100 µM
Cc1ccc(/C=N\NC(=O)c2[nH]c3ccc(F)cc3c2-c2ccccc2)cc1	0.0217 µM	0.0495 µM	0.0344 µM	> 100 µM	0.0591 µM	> 100 µM	1.15 µM	> 100 µM	0.0395 µM	> 37.2 µM	0.027 µM	0.855 µM	0.0321 µM	16.5 µM	0.0378 µM	> 58.9 µM	0.0572 µM	> 80.9 µM	0.0238 µM	1.91 µM
N#CC1(C(N)=O)C(c2ccc(Cl)cc2)CC(=O)CC1c1ccc(Cl)cc1 (stereo not drawn)	16.3 µM	33.2 µM	18.1 µM	39.8 µM	16.4 µM	33.1 µM	16.6 µM	30.6 µM	18.1 µM	50.7 µM	14.8 µM	28 µM	14.8 µM	29.9 µM	16.6 µM	31.6 µM	15.7 µM	33.4 µM	39.7 µM	> 100 µM
O=C(Nc1ccc(OCc2nnc(-c3ccc(Cl)cc3)o2)c(F)c1)Nc1ccc(Cl)c(C(F)(F)F)c1	2.62 µM	11.6 µM	2.65 µM	11.7 µM	3.66 µM	17.6 µM	3.02 µM	13.5 µM	1.82 µM	8.09 µM	1.8 µM	6.16 µM	3.01 µM	7.98 µM	1.88 µM	5.03 µM	2.4 µM	6.33 µM	2.59 µM	11.5 µM
C=CC(=O)Nc1cccc(Oc2nc(Nc3ccc(N4CCN(C)CC4)cc3)nc3ccsc23)c1	1.71 µM and 1.93 µM	3.69 µM and 4.12 µM	3.47 µM and 3.71 µM	> 10 µM and 17.6 µM	3.61 µM and 8.09 µM	> 10 µM and 25.2 µM	1.87 µM and 1.89 µM	3.49 µM and 3.71 µM	2.01 µM and 1.96 µM	4.91 µM and 4.62 µM	1.48 µM and 1.81 µM	2.93 µM and 3.33 µM	14.8 µM	> 10 µM and 32.3 µM	2.89 µM and 2.97 µM	> 10 µM and 9.01 µM	1.63 µM and 1.83 µM	3.14 µM and 3.66 µM	2.73 µM and 3.3 µM	> 10 µM and 20.1 µM
CNCCCNCCCCNCCCN1C(=O)c2ccc3c4c(ccc(c24)C1=O)C(=O)N(CCCNCc1ccccc1OC)C3=O	0.795 µM	6.21 µM	3.45 µM	20.2 µM	5.35 µM	26.9 µM	1.4 µM	10.1 µM	3 µM	22.8 µM	2.04 µM	21.1 µM	3.12 µM	20.2 µM	3.24 µM	18 µM	0.939 µM	3.05 µM	7.09 µM	> 100 µM
O=C(/C=C\c1cccc([N+](=O)[O-])c1)/C=C/c1cccc([N+](=O)[O-])c1	2.79 µM	12.4 µM	3.21 µM	12.2 µM	19.7 µM	> 100 µM	> 100 µM	> 100 µM	0.43 µM	1.6 µM	0.2 µM	0.407 µM	2.6 µM	6.9 µM	2.06 µM	5.21 µM	37.9 µM	> 100 µM	20.2 µM	> 100 µM
COc1cc2c(cc1OCCCn1c(-c3ccccn3)nc3ccccc31)N=C[C@@H]1CCCN1C2=O	1.42 µM	2.91 µM	1.87 µM	7.08 µM	3.41 µM	9.34 µM	5.01 µM	11.6 µM	8.8 µM	> 20.8 µM	1.35 µM	7.56 µM	1.13 µM	2.65 µM	2.37 µM	11.4 µM	5.32 µM	11 µM	2.79 µM	7.31 µM
O=C(O)c1ccc(C(=O)c2ccccc2)c(C(=O)O)c1	–	> 100 µM	–	> 100 µM	–	> 100 µM	–	> 100 µM	–	> 100 µM	–	> 100 µM	–	> 100 µM	–	> 100 µM	–	> 100 µM	–	> 100 µM
